The values that follow are results of earlier work, collected in PubChem BioAssay AID1259409 (Chemical Carcinogenesis Research Information System (CCRIS), 2018).

“And” between values parts separate entries of the source, which are not always exact repeats. Identical values can stand only once.

The series deals with rodent chemically induced tumor inhibition, incidence and multiplicity. In words: CCRIS tumor inhibitor studies.

In the case of `CC1=C(/C=C/C(C)=C/C=C/C(C)=C\C(=O)Nc2ccc(OC(=O)C(C)(C)C)cc2)C(C)(C)CCC1`, the “tumour outcome (control, treated, inhibition, significance)” value is, setting by setting: (Carcinogen: N-NITROSOBIS(2-OXOPROPYL)AMINE, 60599-38-4, Dose [Inhibitor]: 0.25 MMOL/KG DIET FOR 364 D STARTING 2 WK AFTER LAST CARCINOGEN DOSE (STUDY DURATION: 55 WK), Route [Inhibitor]: ORAL, Species: HAMSTER, Strain/Sex: SYRIAN/FEMALE, Target Tissue: Type of Lesion: LIVER: CARCINOMA, Dose [Carcinogen]: 20 MG/KG INJECTION GIVEN TWICE 1 WK APART, Promoter: NONE USED) 7%, 10%, -43%, not calculated; (Carcinogen: N-NITROSOBIS(2-OXOPROPYL)AMINE, 60599-38-4, Dose [Inhibitor]: 0.25 MMOL/KG DIET FOR 364 D STARTING 2 WK AFTER LAST CARCINOGEN DOSE (STUDY DURATION: 55 WK), Route [Inhibitor]: ORAL, Species: HAMSTER, Strain/Sex: SYRIAN/MALE, Target Tissue: Type of Lesion: LIVER: CARCINOMA, Dose [Carcinogen]: 20 MG/KG INJECTION GIVEN TWICE 1 WK APART, Promoter: NONE USED) 5%, 25%, -400%, not calculated; (Carcinogen: N-NITROSOBIS(2-OXOPROPYL)AMINE, 60599-38-4, Dose [Inhibitor]: 0.25 MMOL/KG DIET FOR 364 D STARTING 2 WK AFTER LAST CARCINOGEN DOSE (STUDY DURATION: 55 WK), Route [Inhibitor]: ORAL, Species: HAMSTER, Strain/Sex: SYRIAN/MALE, Target Tissue: Type of Lesion: PANCREAS: CARCINOMA, Dose [Carcinogen]: 20 MG/KG INJECTION GIVEN TWICE 1 WK APART, Promoter: NONE USED) 34%, 14%, 59%, not calculated and 38%, 28%, 26%, not calculated; (Carcinogen: N-NITROSOBIS(2-OXOPROPYL)AMINE, 60599-38-4, Dose [Inhibitor]: 0.5 MMOL/KG DIET FOR 209 D STARTING 2 WK AFTER LAST CARCINOGEN DOSE FOLLOWED BY 0.25 MMOL/KG DIET FOR 117 D WITH INTERMI, Route [Inhibitor]: ORAL, Species: HAMSTER, Strain/Sex: SYRIAN/FEMALE, Target Tissue: Type of Lesion: LIVER: CARCINOMA, Dose [Carcinogen]: 20 MG/KG INJECTION GIVEN TWICE 1 WK APART, Promoter: NONE USED) 5%, 19%, -280%, not calculated; (Carcinogen: N-NITROSOBIS(2-OXOPROPYL)AMINE, 60599-38-4, Dose [Inhibitor]: 0.5 MMOL/KG DIET FOR 209 D STARTING 2 WK AFTER LAST CARCINOGEN DOSE FOLLOWED BY 0.25 MMOL/KG DIET FOR 117 D WITH INTERMI, Route [Inhibitor]: ORAL, Species: HAMSTER, Strain/Sex: SYRIAN/FEMALE, Target Tissue: Type of Lesion: PANCREAS: CARCINOMA, Dose [Carcinogen]: 20 MG/KG INJECTION GIVEN TWICE 1 WK APART, Promoter: NONE USED) 38%, 27%, 29%, not calculated; (Carcinogen: N-NITROSOBIS(2-OXOPROPYL)AMINE, 60599-38-4, Dose [Inhibitor]: 0.5 MMOL/KG DIET FOR 209 D STARTING 2 WK AFTER LAST CARCINOGEN DOSE FOLLOWED BY 0.25 MMOL/KG DIET FOR 117 D WITH INTERMI, Route [Inhibitor]: ORAL, Species: HAMSTER, Strain/Sex: SYRIAN/MALE, Target Tissue: Type of Lesion: LIVER: HEPATOCELLULAR CARCINOMA, Dose [Carcinogen]: 20 MG/KG INJECTION GIVEN TWICE 1 WK APART, Promoter: NONE USED) 7%, 19%, -171%, not calculated. The “tumour outcome (control, treated, inhibition, significance)” value (Carcinogen: N-NITROSOBIS(2-OXOPROPYL)AMINE, 60599-38-4, Dose [Inhibitor]: 0.5 MMOL/KG DIET FOR 209 D STARTING 2 WK AFTER LAST CARCINOGEN DOSE FOLLOWED BY 0.25 MMOL/KG DIET FOR 117 D WITH INTERMI, Route [Inhibitor]: ORAL, Species: HAMSTER, Strain/Sex: SYRIAN/MALE, Target Tissue: Type of Lesion: PANCREAS: CARCINOMA, Dose [Carcinogen]: 20 MG/KG INJECTION GIVEN TWICE 1 WK APART, Promoter: NONE USED) was 34%, 30%, 12%, not significant.

For `C=C1C[C@H]2[C@@H]3C=C(C)C4=CC(=O)CC[C@]4(C)[C@H]3CC[C@]2(C)[C@@]1(OC(C)=O)C(C)=O`, the “tumour outcome (control, treated, inhibition, significance)” value (Carcinogen: NONE USED, Dose [Inhibitor]: 0, 0.1 MG/D IN DIET FOR THE DURATION OF STUDY (STUDY DURATION: LIFESPAN), Route [Inhibitor]: ORAL, Species: RAT, Strain/Sex: BDII/FEMALE, Target Tissue: Type of Lesion: UTERUS: ENDOMETRIAL CARCINOMA, Promoter: NONE USED) is 17/20 (85%), 0/20 (0%), 100%, not calculated; the “tumour outcome (control, treated, inhibition, significance)” value (Carcinogen: NONE USED, Dose [Inhibitor]: 0, 0.2 MG/D IN DIET FOR THE DURATION OF STUDY (STUDY DURATION: LIFESPAN), Route [Inhibitor]: ORAL, Species: RAT, Strain/Sex: BDII/FEMALE, Target Tissue: Type of Lesion: UTERUS: ENDOMETRIAL CARCINOMA, Promoter: NONE USED) is recorded as 17/20 (85%), 0/19 (0%), 100%, not calculated; the “tumour outcome (control, treated, inhibition, significance)” value (Carcinogen: NONE USED, Dose [Inhibitor]: 0, 0.4 MG/D IN DIET FOR THE DURATION OF STUDY (STUDY DURATION: LIFESPAN), Route [Inhibitor]: ORAL, Species: RAT, Strain/Sex: BDII/FEMALE, Target Tissue: Type of Lesion: UTERUS: ENDOMETRIAL CARCINOMA, Promoter: NONE USED) was 17/20 (85%), 0/17 (0%), 100%, not calculated.

Turning to `O=C1O[C@@H]2[C@@H](O)CO[C@]2(O)[C@@]1(O)Cc1c[nH]c2ccccc12`, the “tumour outcome (control, treated, inhibition, significance)” value reads like this: (Carcinogen: 7,12-DIMETHYLBENZ[A]ANTHRACENE [57-97-6], Dose [Inhibitor]: 0, 16 MG IN 0.5 ML DMSO 1X/D FOR 3 D BEGINNING 2 D PRIOR TO CARCINOGEN DOSE (STUDY DURATION: 93 D), Route [Inhibitor]: GAVAGE, Species: RAT, Strain/Sex: SPRAGUE-DAWLEY/FEMALE, Target Tissue: Type of Lesion: MAMMARY GLAND: TUMOR, Dose [Carcinogen]: 15 MG IN 0.5 ML DMSO TOGETHER WITH THE LAST DOES OF INHIBITOR (STUDY DURATION: 93 D), Promoter: NONE) 63%, 60%, 5%, not significant; (Carcinogen: 7,12-DIMETHYLBENZ[A]ANTHRACENE [57-97-6], Dose [Inhibitor]: 0, 32.5 MG IN 0.5 ML DMSO 1X/D FOR 3 D BEGINNING 2 D PRIOR TO CARCINOGEN DOSE (STUDY DURATION: 93 D), Route [Inhibitor]: GAVAGE, Species: RAT, Strain/Sex: SPRAGUE-DAWLEY/FEMALE, Target Tissue: Type of Lesion: MAMMARY GLAND: TUMOR, Dose [Carcinogen]: 15 MG IN 0.5 ML DMSO TOGETHER WITH THE LAST DOES OF INHIBITOR (STUDY DURATION: 93 D), Promoter: NONE) 63%, 33%, 48%, p<0.05; (Carcinogen: 7,12-DIMETHYLBENZ[A]ANTHRACENE [57-97-6], Dose [Inhibitor]: 0, 65 MG IN 0.5 ML DMSO 1X/D FOR 3 D BEGINNING 2 D PRIOR TO CARCINOGEN DOSE (STUDY DURATION: 93 D), Route [Inhibitor]: GAVAGE, Species: RAT, Strain/Sex: SPRAGUE-DAWLEY/FEMALE, Target Tissue: Type of Lesion: MAMMARY GLAND: TUMOR, Dose [Carcinogen]: 15 MG IN 0.5 ML DMSO TOGETHER WITH THE LAST DOES OF INHIBITOR (STUDY DURATION: 93 D), Promoter: NONE) 63%, 39%, 38%, p<0.05.

As to `O/N=C/Cc1c[nH]c2ccccc12`, the “tumour outcome (control, treated, inhibition, significance)” value (Carcinogen: 7,12-DIMETHYLBENZ[A]ANTHRACENE, 57-97-6, Dose [Inhibitor]: 0.1 MMOL IN 1 ML DIMETHYL SULFOXIDE ONCE 20 HR PRIOR TO CARCINOGEN ADMINISTRATION FOLLOWED BY A 14 WK OBSERVATION PERIOD, Route [Inhibitor]: GAVAGE, Species: RAT, Strain/Sex: SPRAGUE-DAWLEY/FEMALE, Target Tissue: Type of Lesion: MAMMARY GLAND: TUMOR, Dose [Carcinogen]: 12 MG IN 1 ML OLIVE OIL ONCE, Promoter: NONE USED) is listed as 64%, 19%, 70%, p<0.05.
